# How the values were obtained:
# [1] = tested on: Pyrenophora teres; experiment: Activity against net blotch of barley caused by Pyrenophora teres, protective application; format: in vivo; details: 250 ppm, protective spray, assessed after 6 days, untreated plants 90% infected
# Description: (§1) The active compounds were prepared as a stock solution with 25 mg of active compound which was made up to 10 ml using a mixture of acetone and/or DMSO and the emulsifier Uniperol® EL (wetting agent having emulsifying and dispersing action based on ethoxylated alkylphenols) in a volume ratio of solvent/emulsifier of 99 to 1.
# (§2) The mixture was then made up with water to 100 ml. This stock solution was diluted with the solvent/emulsifier/water mixture described to the concentration of active compounds stated below.
# Use Example 1—Activity Against Net blotch of Barley Caused by Pyrenophora teres, Protective Application
# Leaves of potted barley seedlings of the cultivar “Hanna” were sprayed to runoff point with an aqueous suspension having the concentration of active compounds stated below. 24 hours after the spray coating had dried on, the test plants were inoculated with an aqueous spore suspension of Pyrenophora [syn. Drechslera]teres, the net blotch pathogen. The test plants were then placed in a greenhouse at temperatures between 20 and 24° C. and 95 to 100% relative atmospheric humidity. After 6 days, the extent of the development of the disease was determined visually in % infection of the entire leaf area.
# [2] = tested on: Botrytis cinerea; experiment: Activity against gray mold on bell-pepper leaves caused by Botrytis cinerea, protective application; format: in vivo; details: 250 ppm, protective spray, assessed after 5 days, untreated plants 100% infected
# Description: as §1, §2
# Use Example 2—Activity Against Gray Mold on Bell-Pepper Leaves Caused by Botrytis cinerea, Protective Application
# Bell-pepper seedlings of the cultivar “Neusiedler Ideal Elite” were, after 2 to 3 leaves were well developed, sprayed to runoff point with an aqueous suspension having the concentration of active compounds stated below. The next day, the treated plants were inoculated with a spore suspension of Botrytis cinerea which contained 1.7×10^6 spores/ml in a 2% aqueous biomold solution. The test plants were then placed in a dark acclimatized chamber at 22 to 24° C. and high atmospheric humidity. After 5 days, the extent of the fungal infection on the leaves could be determined visually in %.
structure (smiles),measurement,setting,value
"CC1CCN(c2c(-c3c(Cl)cc(Cl)cc3Cl)c(C#N)nc3ncnn23)CC1 [Example 1, 5-cyano-6-(2,4,6-trichlorophenyl)-7-(4-methylpiperidinyl)-1,2,4-triazolo[1,5a]pyrimidine]",infection of the entire leaf area,[1],about 1%
same,fungal infection on the leaves,[2],about 7%

# From patent publication US20070135453A1, “6-(2,4,6-Trihalophenyl)triazolopyrimidines, their preparation and their use for controlling harmful fungi, and compositions comprising these compounds” (BASF Aktiengesellschaft, priority 2003, published 2007)
